According to patent US10023615B2, “Efficient transport into white blood cells” (priority 2008, dated 2018):
Entries after “also recorded” stand apart in the source; their conditions may differ. Ends that are not written are not given here.

Assays:
[1] = tested on: bleomycin induced lung inflammation; experiment: Bleomycin (BLM) induced acute lung inflammation; format: in vivo, C57BL/6 mice; conditions: for cell recruitment in bronchoalveolar lavage space: single dose, 1 day
From the text: In order to determine the activity of the exemplary all-D retro-inverso IB(s) peptide XG-102 (SEQ ID NO: 233) in the treatment of Chronic Obstructive Pulmonary Disease (COPD) XG-102 (SEQ ID NO: 233) is used in an animal model of Bleomycin induced acute lung inflammation and fibrosis. The protocol of bleomycin induced inflammation and fibrosis has been described before in the literature. The aim of the Experiment was to investigate the effect of XG-102 (SEQ ID NO: 233) by subcutaneous (s.c.) route on neutrophil recruitment in broncho alveolar lavage (BAL) and lung in bleomycin induced inflammation and fibrosis: • at 1 day after a single bleomycin administration (10 mg/kg) • and at day 10 with the development of fibrosis
1) Method and Experimental Approach • The test compound XG-102 (SEQ ID NO: 233) at two doses and vehicle control were given s.c. with a single intranasal administration of bleomycin and mice were analyzed after 1 and 10 days. The animals used in the model were 10 C57BL/6 mice (8 weeks old) per group. The experimental groups included vehicle, 0.001 mg/kg XG-102 (SEQ ID NO: 233) and 0.1 mg/kg XG-102 (SEQ ID NO: 233), and the treatment consisted of repeated sub-cutaneous administration of XG-102 (SEQ ID NO: 233), prior to bleomycin administration then every 3 days. Acute lung inflammation at 24 h was monitored by BAL lavage, cytology, cell counts, and lung myeloperoxidase activity. The effect of the compound was compared with vehicle controls. Lung fibrosis was assessed histologically using hematoxylin and eosin staining at day 10 after the single dose of bleomycin.
1.1) Bleomycin Administration • Bleomycin sulfate in saline (10 mg/kg body weight) from Bellon Laboratories (Montrouge, France) or saline were given through the airways by nasal instillation in a volume of 40 μL under light ketamine-xylasine anesthesia. The groups for Bleomycin administration for both bleomycin induced inflammation and fibrosis included: Vehicle, 0.001 mg/kg XG-102 (SEQ ID NO: 233) and 0.1 mg/kg XG-102 (SEQ ID NO: 233). The route for bleomycin induced inflammation was subcutaneous (s.c.) route, and administration occurred as a single dose. The route for bleomycin induced fibrosis was subcutaneous (s.c.) route, and administration occurred 3 times in 10 days.
1.2) Bronchoalveolar Lavage Fluid (BALE) • After incision of the trachea, a plastic cannula was inserted and airspaces were washed using 0.3 ml of PBS solution, heated to 37° C. The samples collected were dispatched in 2 fractions: the first one (1 ml corresponding to the 2 first lavages) was used for mediator measurement and the second one for the cell determination (4 ml). The first fraction was centrifuged (600 g for 10 min) and supernatant was fractionated and kept at −80° C. until mediator determination. The cell pellet was then resuspended in 0.4 ml sterile NaCl, 0,9%, and pooled with the second fraction and was used for cell counts.
1.3) Lung Homogenization • After BAL the whole lung was removed and placed inside a microtube (Lysing matrix D, Q Bio Gene, Illkrich, France) with 1 ml of PBS, total lung tissue extract was prepared using a Fastprep® system (FP120, Q Bio Gene, Illkrich, France), the extract was then centrifuged and the supernatant stored at −80° C. before mediator measurement and collagen assay with Sircol Collagen Assay (France Biochem Division, France).
1.4) Cell Count and Determination • Total cell count was determined in BAL fluid using a Malassez hemocytometer. Differential cell counts were performed on cytospin preparations (Cytospin 3, Thermo Shandon) after staining with MGG Diff-quick (Dade Behring AG). Differential cell counts were made on 200 cells using standard morphological criteria.
1.5) TNF Measurement • TNF level in BALF was determined using ELISA assay kits (Mouse DuoSet, R&D system, Minneapolis, USA) according to manufacturer's instructions. Results are reported as pg/ml. […]

TNBS induced colitis = TNBS induced colitis (IBD study); format: in vivo
Experimental: b) Constitution of Test Groups and Dose Levels • The table below lists the experimental groups comprising the study.
c) Test Procedures • Colitis was induced by administration of TNBS dissolved in 50% Ethanol • All animals were then treated with doses of XG-102 in the range of 0.1 to 1000 μg/kg, […], as a single or repeated daily doses (see above).
d) Observations and Examinations • i) Clinical Signs • Throughout the duration of the above experiment, careful clinical examinations were carried out and recorded. Observations included changes external appearance, e.g. of the skin, fur, eyes, mucous membranes, occurrence of secretions and excretions (e.g. diarrhea), and autonomic activity. Changes in gait, posture and response to handling, as well as the presence of bizarre behavior, tremors, convulsions, sleep and coma were also noted. • ii) Body Weights • Determination of individual body weight of animals was made on a daily basis. • iii) Clinical Assessment of Colitis • Body weight, stool consistency and bleeding per rectum were all recorded daily and served as the parameters of disease severity score:
• iv) Gross Pathology of the Colon • On the last day of the experiment, animals were euthanized and the colon was removed for gross pathology evaluation according to the following score: […]

“dqsrpvqpflnIttprkprpprrrqrrkkrg (DQSRPVQPFLNLTTPRKPRPPRRRQRRKKRG; not fully specified (some residues); printed as dqsrpvqpflnIttprkprpprrrqrrkkrg) [XG-102]” was tested, and the “cell recruitment in bronchoalveolar lavage space” value ([1]; 0.001 mg/kg s.c.) was “has no effect on neutrophil recruitment or other cell types into the bronchoalveolar space”, the “cell recruitment in bronchoalveolar lavage space” value ([1]; 0.1 mg/kg s.c.) was “reduces significantly the neutrophil recruitment and the number of total cells recruited; also recorded: decreases the neutrophil and total cell recruitment into the bronchoalveolar space” and the “MPO levels in the lung” value ([1]; MPO not significantly induced after bleomycin) was “no effect on MPO levels in the lung; also recorded: no effect on the MPO levels in the lung”. The “TNF level in BALF” value ([1]; TNF levels very low after BLM) was “a trend to reduction of the TNF level in BALF; also recorded: induces a trend to decrease the TNF level”, the “Bleomycin-induced inflammation (conclusion)” value ([1]; mouse, in vivo) was “reduces the Bleomycin-induced inflammation” and the “histology: inflammatory cell accumulation” value ([1]; peribronchial space) was “a decrease of the inflammatory cell accumulation in the peribronchial space”. The “disease recovery (conclusion)” value (TNBS induced colitis) was “active in enhancing diseases recovery”, the body weights (TNBS induced colitis; TNBS induced weight loss) was “either prevented the weight loss or ameliorated the symptoms and supported recovery” and the clinical score (TNBS induced colitis; any dose, route or time schedule (single dose or daily dose)) was “an effect equivalent to or better than the one observed with the commonly used reference drug sulfasalazine”. The clinical signs (TNBS induced colitis; mouse, in vivo) was “No abnormalities were observed” and the mortality rate (TNBS induced colitis; mouse, in vivo) was “No mortality was recorded”.
